Source: ChEMBL document CHEMBL2074429, “ATP-dependent primary active transport of cysteinyl leukotrienes across liver canalicular membrane. Role of the ATP-dependent transport system for glutathione S-conjugates” (J Biol Chem, 1990)

What was measured:
Assay type in all cases: functional, cell membranes, Plasma membrane vesicle
[1] = target: T1, ATP-binding cassette sub-family C member 2 (ABCC2) (Rattus norvegicus, UniProt Q63120); assay: TP_TRANSPORTER: inhibition of LTC4 uptake (LTC4: 0.01 uM, Vincristine: 100 uM) in liver plasma membrane vesicles of Wistar rat; design: scale not given: the % may be the effect or the level left; conditions: probe LTC4 (0.01 uM), read-out: Activity
[2] = target: T1, ATP-binding cassette sub-family C member 2 (ABCC2); assay: TP_TRANSPORTER: inhibition of LTC4 uptake (LTC4: 0.01 uM, Vinblastine: 100 uM) in liver plasma membrane vesicles of Wistar rat; design: scale not given: the % may be the effect or the level left; conditions: probe LTC4 (0.01 uM), read-out: Activity
[3] = target: ATP-binding cassette sub-family C member 2 (Rattus norvegicus, UniProt Q63120); assay: (§1) TP_TRANSPORTER: uptake in liver plasma membrane vesicles of Wistar rat
[4] = substrate: CCCCC/C=C\C\C=C/C=C/C=C/[C@@H](SC[C@H](NC(C)=O)C(=O)O)[C@@H](O)CCCC(=O)O; assay: as §1
[5] = substrate: CCCCC/C=C\C\C=C/C=C/C=C/[C@@H](SC[C@H](N)C(=O)NCC(=O)O)[C@@H](O)CCCC(=O)O; assay: as §1
[6] = substrate: CCCCC/C=C\C\C=C/C=C/C=C/[C@@H](SC[C@@H](NC(=O)CC[C@H](N)C(=O)O)C(=O)NCC(=O)O)[C@@H](O)CCCC(=O)O; assay: as §1

## CC[C@]1(O)C[C@H]2CN(CCc3c([nH]c4ccccc34)[C@@](C(=O)OC)(c3cc4c(cc3OC)N(C=O)[C@H]3[C@@](O)(C(=O)OC)[C@H](OC(C)=O)[C@]5(CC)C=CCN6CC[C@]43[C@@H]65)C2)C1 [VINCRISTINE]
[1]
  activity at 100 µM: 42%

## CC[C@]1(O)C[C@@H]2CN(CCc3c([nH]c4ccccc34)[C@@](C(=O)OC)(c3cc4c(cc3OC)N(C)[C@H]3[C@@](O)(C(=O)OC)[C@H](OC(C)=O)[C@]5(CC)C=CCN6CC[C@]43[C@@H]65)C2)C1 [VINBLASTINE]
[2]
  activity at 100 µM: 29%

## CCCCC/C=C\C\C=C/C=C/C=C/[C@@H](SC[C@H](N)C(=O)O)[C@@H](O)CCCC(=O)O [LEUKOTRIEN E4]
[3]
  Activity: substrate [+]

B1: ATP-binding cassette sub-family C member 2 (Rattus norvegicus) (protein)
chain: MDKFCNSTFWDLSLLESPEADLPLCFEQTVLVWIPLGFLWLLAPWQLYSVYRSRTKRSSITKFYLAKQVFVVFLLILAAIDLSLALTEDTGQATVPPVRYTNPILYLCTWLLVLAVQHSRQWCVRKNSWFLSLFWILSVLCGVFQFQTLIRALLKDSKSNMAYSYLFFVSYGFQIVLLILTAFSGPSDSTQTPSVTASFLSSITFSWYDRTVLKGYKHPLTLEDVWDIDEGFKTRSVTSKFEAAMTKDLQKARQAFQRRLQKSQRKPEATLHGLNKKQSQSQDVLVLEEAKKKSEKTTKDYPKSWLIKSLFKTFHVVILKSFILKLIHDLLVFLNPQLLKLLIGFVKSSNSYVWFGYICAILMFAVTLIQSFCLQSYFQHCFVLGMCVRTTVMSSIYKKALTLSNLARKQYTIGETVNLMSVDSQKLMDATNYMQLVWSSVIQITLSIFFLWRELGPSILAGVGVMVLLIPVNGVLATKIRNIQVQNMKNKDKRLKIMNEILSGIKILKYFAWEPSFQEQVQGIRKKELKNLLRFGQLQSLLIFILQITPILVSVVTFSVYVLVDSANVLNAEKAFTSITLFNILRFPLSMLPMVTSSILQASVSVDRLERYLGGDDLDTSAIRRVSNFDKAVKFSEASFTWDPDLEATIQDVNLDIKPGQLVAVVGTVGSGKSSLVSAMLGEMENVHGHITIQGSTAYVPQQSWIQNGTIKDNILFGSEYNEKKYQQVLKACALLPDLEILPGGDMAEIGEKGINLSGGQKQRVSLARAAYQDADIYILDDPLSAVDAHVGKHIFNKVVGPNGLLAGKTRIFVTHGIHFLPQVDEIVVLGKGTILEKGSYRDLLDKKGVFARNWKTFMKHSGPEGEATVNNDSEAEDDDDGLIPTMEEIPEDAASLAMRRENSLRRTLSRSSRSSSRRGKSLKNSLKIKNVNVLKEKEKEVEGQKLIKKEFVETGKVKFSIYLKYLQAVGWWSILFIILFYGLNNVAFIGSNLWLSAWTSDSDNLNGTNNSSSHRDMRIGVFGALGLAQGICLLISTLWSIYACRNASKALHGQLLTNILRAPMRFFDTTPTGRIVNRFSGDISTVDDLLPQTLRSWMMCFFGIAGTLVMICMATPVFAIIIIPLSILYISVQVFYVATSRQLRRLDSVTKSPIYSHFSETVTGLPIIRAFEHQQRFLAWNEKQIDINQKCVFSWITSNRWLAIRLELVGNLVVFCSALLLVIYRKTLTGDVVGFVLSNALNITQTLNWLVRMTSEAETNIVAVERISEYINVENEAPWVTDKRPPADWPRHGEIQFNNYQVRYRPELDLVLKGITCNIKSGEKVGVVGRTGAGKSSLTNCLFRILESAGGQIIIDGIDVASIGLHDLRERLTIIPQDPILFSGSLRMNLDPFNKYSDEEVWRALELAHLRSFVSGLQLGLLSEVTEGGDNLSIGQRQLLCLGRAVLRKSKILVLDEATAAVDLETDSLIQTTIRKEFSQCTVITIAHRLHTIMDSDKIMVLDNGKIVEYGSPEELLSNRGSFYLMAKEAGIENVNHTEL
[4]
  Km: 5.2 µM
[5]
  Km: 1.5 µM
[6]
  Km: 0.25 µM
